Inhibition data for five compounds are collected here from patent US8940774B2, “Tris-Quaternary Ammonium Salts and Methods for Modulating Neuronal Nicotinic Acetylcholine Receptors” (University of Kentucky Research Foundation, priority 2005, dated 2015).

By inhibition is commonly meant how much of the control response was suppressed.

For experiment [1], the target named is T1, Rat Striatal Nicotinic Receptors (Rattus norvegicus, UniProt P09483+P12390).
T1 construct: from tissue; host or cells: rat striatal membranes
Briefly: Inhibition of [3H]Nicotine (NIC) binding assay, rat striatal membranes. Conditions: % inhibition at 100 nM concentration of analog, 3 nM [3H]NIC. On the procedure:
Striata from two rats were dissected, pooled, and homogenized with a Tekmar polytron in 10 vol of ice-cold modified Krebs-HEPES buffer (20 mM HEPES, 118 mM NaCl, 4.8 mM, KCl, 2.5 mM CaCl2, 1.2 mM MgSO4, adjusted to pH 7.5). The homogenates were incubated at 37° C. for 5 minutes and centrifuged at 15,000 g for 20 minutes. The pellet was resuspended in 10 volumes of ice-cold MilliQ water, incubated for 5 minutes at 37° C., and centrifuged at 15,000 g for 20 minutes. The second pellet was then resuspended in 10 volumes of fresh ice-cold 10% Krebs-HEPES buffer, incubated at 37° C., and centrifuged at 15,000 g for 20 minutes. The latter sequence of resuspension, incubation and centrifugation was repeated. The pellet was frozen under fresh 10% Krebs-HEPES buffer and stored at −40° C. until assay. Upon assay, the pellet was resuspended in Krebs-HEPES buffer, incubated at 37° C. for 5 minutes, and centrifuged at 15,000 g for 20 minutes. The final pellet was resuspended in 3.6 mL ice-cold MilliQ water which provided for approximately 200 μg protein per 100 μL aliquot. Competition assays were performed in duplicate in a final volume of 200 μL Krebs-HEPES buffer containing […] Tris buffer (pH 7.5 at 4° C.). Reactions were initiated by addition of 100 μL of membrane suspension to 3 nM [^3H]NIC (50 μL) and one of at least nine concentrations of analog (50 μL). After a 90 minute incubation at 4° C., reactions were terminated by dilution of the samples with 3 mL of ice-cold Krebs-HEPES buffer followed immediately by filtration through Whatman GF/B glass fiber filters (presoaked in 0.5% polyethyleneimine) using a Brandel Cell Harvester. Filters were rinsed three times with 3 mL of ice-cold Krebs-HEPES buffer, transferred to scintillation vials, and 5 mL scintillation cocktail (Research Products international Corp., Mt. Prospect, Ill.) added. Nonspecific binding determined in triplicate was defined as binding in the presence of 10 μM NIC. Binding parameters were determined using the weighted, least squares non-linear regression. The tris-quaternary ammonium salts were evaluated for their ability to displace [^3H]NIC binding from rat striatal membranes.
(§1) Data are % inhibition at 100 nM concentration of analog for at least 1-3 independent experiments. Specific binding in the [^3H]NIC binding assay is calculated at the difference between the total binding of [^3H]NIC and nonspecific binding in the presence of 10 μM cold nicotine. Specific binding for the [^3H]MLA binding assay is calculated as the difference between the total binding of 2.5 nM [^3H]MLA to the receptors alone and its nonspecific binding in the presence of 1 μM cold MLA. Analog-induced inhibition of nicotine-evoked [^3H]DA release is calculated as a percent of that in the absence of analog.

Experiment [2] has as its system NIC-evoked [3H]DA release from rat striatal slices. Put plainly: Nicotine-evoked [3H]dopamine release assay, superfused rat striatal slices. Type of experiment: cell-based. The settings on record: 100 nM analog superfused 60 minutes prior to NIC (10 μM), percent of that in the absence of analog. As for the experimental part: Rat striatal slices (500 μm thickness, 6-8 mg wet weight) were incubated for 30 minutes in Krebs buffer (118 mM NaCl, 4.7 mM KCl, 1.2 mM MgCl2, 1.0 mM NaH2PO4, 1.3 mM CaCl2, 11.1 mM glucose, 25 mM NaHCO3, 0.11 mM L-ascorbic acid and 0.004 mM disodium EDTA; pH 7.4, and saturated with 95% O2/5% CO2) in a metabolic shaker at 34° C. Slices were rinsed with 15 mL of fresh buffer and incubated for an additional 30 minutes in fresh buffer containing 0.1 μM [^3H]dopamine (DA; 6 slices/3 mL). Subsequently, slices were rinsed with 15 mL of fresh buffer and transferred to a glass superfusion chamber. Slices were superfused (1.0 mL/min) for 60 minutes with Krebs buffer containing nomifensine (10 μM) and pargyline (10 μM) and maintained at 34° C., pH 7.4 with continual aeration (95% O2/5% CO2). Two five minute samples (5 mL each) were collected to determine basal outflow of [^3H]DA. Analogs were added to the superfusion buffer after the collection of the second sample and remained in the buffer until 12 consecutive five minute samples were collected. Subsequently, S-(−)-nicotine (10 μM) was added to the buffer and an additional 12 consecutive five minute samples were collected. At the end of the experiment, each slice was solubilized and the [^3H] content of the tissue determined.
Radioactivity in the superfusate and tissue samples were determined by liquid scintillation spectroscopy. Fractional release for tritium collected in each sample was divided by the total tritium present at the time of sample collection and was expressed as a percentage of total tritium. Basal [^3H] outflow was calculated from the average of the tritium collected in the two five-minute samples just before addition of the analog. The sum of the increase in collected tritium resulting from either exposure to the test compound or exposure to S-(−)-nicotine in the absence cod presence of the test compound equaled total [^3H] overflow. [^3H] Overflow was calculated by subtracting the [^3H] outflow during an equivalent period of prestimulation from the values in samples collected during and after drug exposure. Inasmuch as the radiolabelled compounds were not separated and identified, the tritium in the superfusate is referred to as either [^3H] outflow or [^3H] overflow, rather than [^3H]DA. [^3H] Overflow primarily represents [^3H]DA in the presence of nomifesine and pargyline in the superfusion buffer. […]
Analogs were also evaluated for their ability to inhibit NIC evoked [^3H]DA release. In these experiments, the striatal slices were superfused for 60 minutes with 100 nM concentration of the analogs prior to NIC (10 μM) exposure. Antagonist activity was evaluated by comparing the NIC-evoked [^3H] overflow in the absence and presence of the analogs. The relative order of potency of the analogs for inhibition of NIC-evoked [^3H]DA release from rat striatal slices is illustrated in Table 1.
as §1

For experiment [3], the target named is T2, α7-type neuronal nicotinic acetylcholine receptors (Rattus norvegicus, UniProt Q05941).
T2 construct: from tissue; host or cells: rat brain membranes (whole brain without cortex, striatum and cerebellum)
Put plainly: Inhibition of [3H]Methyllycaconitine (MLA) binding assay, rat brain membranes. The settings on record: read-out: Inhibition of [3H]MLA binding. As for the experimental part: Rat brain was dissected into the whole brain tissue without cortex, striatum and cerebellum and was frozen in liquid nitrogen and stored at −70° C. until use. The brain tissue was homogenized with a Tekmar Polytron (setting 40) in 20 volumes of ice-cold hypotonic buffer (2 mM HEPES, 14.4 mM NaCl, 0.15 mM KCl, 0.2 mM CaCl2 and 0.1 mM MgSO4, pH=7.5). The homogenate was incubated at 37° C. for 10 minutes and centrifuged at 25,000 g for 15 minutes at […] The pellet was washed 3 times more by resuspension in 20 volumes of the same buffer and centrifugation at the above parameters. The final pellet was stored at −20° C. under 4.6 mL of the incubation buffer and was suspended just before the incubation with radioligand.
The binding of [^3H]MLA to probe α7-type neuronal nicotinic acetylcholine receptors was measured using a modification of the method of Davies at al., “Characterisation of the binding of [^3H]methyllycaconitine (MLA): a radioligand for labelling α7-type neuronal nicotinic acetylcholine receptors,” Neuropharmacology, 38, 679-690 (1999). [^3H]MLA (25.4 Ci/mmol) was purchased from Tocris Cookson Ltd., Bristol, U.K. Binding was performed in duplicate, in a final volume of 250 μL of the incubation medium, containing 20 mM HEPES, 144 mM NaCl, 1.5 mM KCl, 2 mM CaCl2, 1 mM MgSO4 and 0.05% BSA, pH=7.5. Reaction was initiated by the addition of 100 μL of membrane suspension to the samples containing a desired concentration of test compounds and […] [^3H]MLA (final concentration) and incubated for 2 hours it room temperature. Total binding was measured in the absence of unlabelled ligand, and nonspecific binding was determined by the presence of 1 μM unlabelled MLA. The binding reaction was terminated by dilution of samples with 3 mL of ice-cold incubation buffer followed by immediate filtration through glass fiber filters (S&S, grade #32, presoaked in 0.5% polyethylenimine) using a Brandel harvester system. Filters were rinsed three times with 3 mL of ice-cold buffer, transferred to scintillation vials and 4 mL of scintillation cocktail was added. Protein was measured using the Bradford dye-binding procedure with bovine serum albumin as the standard.
The tris-quaternary ammonium salts were evaluated for their ability to displace [^3H]MLA binding from rat brain membranes.
as §1

[4] abbreviates: % inhibition at 100 nM concentration of analog, rat brain membranes, 2.5 nM [3H]MLA.

Where two headings read alike, the source gives them in different places.

T1 sequence (P09483 31-630): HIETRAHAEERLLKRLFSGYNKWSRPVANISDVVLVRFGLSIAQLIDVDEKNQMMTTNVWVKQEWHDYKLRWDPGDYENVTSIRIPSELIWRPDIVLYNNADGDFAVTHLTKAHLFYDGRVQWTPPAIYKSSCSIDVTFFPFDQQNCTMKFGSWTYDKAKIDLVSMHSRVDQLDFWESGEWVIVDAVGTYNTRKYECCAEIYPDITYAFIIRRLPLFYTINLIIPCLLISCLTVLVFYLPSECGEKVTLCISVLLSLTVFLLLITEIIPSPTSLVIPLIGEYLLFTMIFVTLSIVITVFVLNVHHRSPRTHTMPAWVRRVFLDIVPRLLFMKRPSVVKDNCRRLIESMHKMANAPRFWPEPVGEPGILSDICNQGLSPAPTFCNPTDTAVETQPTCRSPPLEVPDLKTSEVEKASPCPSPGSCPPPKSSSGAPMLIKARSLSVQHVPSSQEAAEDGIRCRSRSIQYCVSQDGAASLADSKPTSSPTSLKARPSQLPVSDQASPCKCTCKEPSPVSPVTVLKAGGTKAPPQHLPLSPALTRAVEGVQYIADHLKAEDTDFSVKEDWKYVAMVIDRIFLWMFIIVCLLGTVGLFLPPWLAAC
T1 sequence (P12390 25-500): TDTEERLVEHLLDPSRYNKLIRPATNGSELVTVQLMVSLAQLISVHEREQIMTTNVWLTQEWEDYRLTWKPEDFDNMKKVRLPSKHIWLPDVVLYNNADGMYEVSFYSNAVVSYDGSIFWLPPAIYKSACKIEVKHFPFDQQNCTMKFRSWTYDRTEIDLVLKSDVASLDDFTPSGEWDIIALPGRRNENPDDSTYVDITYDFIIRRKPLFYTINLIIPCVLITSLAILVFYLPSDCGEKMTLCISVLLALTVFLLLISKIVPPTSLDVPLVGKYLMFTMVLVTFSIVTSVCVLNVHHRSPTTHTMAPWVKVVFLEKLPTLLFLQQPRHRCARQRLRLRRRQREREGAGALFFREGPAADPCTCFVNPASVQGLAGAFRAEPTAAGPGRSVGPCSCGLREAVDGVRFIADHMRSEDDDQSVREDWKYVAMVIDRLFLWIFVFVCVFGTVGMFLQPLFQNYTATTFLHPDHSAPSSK
T2 sequence (Q05941 23-502): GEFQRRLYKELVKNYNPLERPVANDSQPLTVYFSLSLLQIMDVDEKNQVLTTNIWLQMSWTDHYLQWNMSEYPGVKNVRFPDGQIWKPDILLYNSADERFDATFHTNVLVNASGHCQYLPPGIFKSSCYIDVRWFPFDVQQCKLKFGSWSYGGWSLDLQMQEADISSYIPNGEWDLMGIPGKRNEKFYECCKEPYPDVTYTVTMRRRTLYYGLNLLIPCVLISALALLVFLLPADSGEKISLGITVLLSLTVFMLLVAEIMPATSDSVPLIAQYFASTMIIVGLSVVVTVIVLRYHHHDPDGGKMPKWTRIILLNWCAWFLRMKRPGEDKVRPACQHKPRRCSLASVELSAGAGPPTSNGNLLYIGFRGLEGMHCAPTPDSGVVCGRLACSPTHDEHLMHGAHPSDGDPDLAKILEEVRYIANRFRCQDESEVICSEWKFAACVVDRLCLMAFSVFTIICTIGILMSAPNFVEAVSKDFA

With `Cc1cc[n+](CCCC#Cc2cc(C#CCCC[n+]3ccc(C)cc3)cc(C#CCCC[n+]3ccc(C)cc3)c2)cc1` [GZ554B, 1,3,5-tris-[5-(4-picolinium)-pent-1-ynyl]-benzene tribromide], the results for the inhibition at 0.1 µM in experiment [1], in experiment [2] and in experiment [3] (setting [4]) were 21 ± 4.5%, 34% and 0%, respectively.

Turning to `C(#Cc1cc(C#CCCC[n+]2cccc(-c3ccccc3)c2)cc(C#CCCC[n+]2cccc(-c3ccccc3)c2)c1)CCC[n+]1cccc(-c2ccccc2)c1` [GZ550B, 1,3,5-tris-[5-(3-phenyl-pyridinium)-pent-1-ynyl]-benzene tribromide], the inhibition at 0.1 µM was found to be 15 ± 0.9% in experiment [1], 49% in experiment [2] and 39 ± 2.2% in experiment [3] (setting [4]).

Take `c1ccc2c(c1)ccc[n+]2CCCCCc1cc(CCCCC[n+]2cccc3ccccc32)cc(CCCCC[n+]2cccc3ccccc32)c1` [GZ556A, 1,3,5-tris-[5-(1-quinolinium)-pentyl]-benzene tribromide]: the inhibition at 0.1 µM in experiment [1] was found to be 5.7 ± 5.7%; in experiment [2] it was 8 ± 6.4%; in experiment [3], 6.8 ± 0.9%.

As for `c1ccc(-c2ccc[n+](CCCCCc3cc(CCCCC[n+]4cccc(-c5ccccc5)c4)cc(CCCCC[n+]4cccc(-c5ccccc5)c4)c3)c2)cc1` [GZ558A, 1,3,5-tris-[5-(3-phenyl-pyridinium)-pentyl]-benzene tribromide], the inhibition at 0.1 µM in experiment [1] is 14 ± 5.8%; in experiment [2], 6 ± 5%; in experiment [3] (setting [4]) it was 19 ± 1.7%.

Consider `Cc1cc(C)c[n+](CCCC#Cc2cc(C#CCCC[n+]3cc(C)cc(C)c3)cc(C#CCCC[n+]3cc(C)cc(C)c3)c2)c1` [GZ553A, 1,3,5-tris-[5-(3,5-lutidinium)-pent-1-ynyl]-benzene tribromide], for which the inhibition at 0.1 µM in experiment [1] amounted to 8.9 ± 2.9%; in experiment [2], 31%; in experiment [3] (setting [4]), 0%.
